Source: ChEMBL document CHEMBL4627310, “Design, synthesis and biological evaluation of 3-nitro-1,8-naphthalimides as potential antitumor agents” (Bioorg Med Chem Lett, 2020)
Activity calls are given as the source filed them. The calls are words filed in the database; no cut-off is given here.

Assays:
T-24 [1] = assay: Induction of apoptosis in human T24 cells assessed as late apoptotic cells at 4.13 uM by AnnexinV/propidium iodide staining based flow cytometry (reference value: 0%); assay type: functional
T-24 [2] = assay: Cell cycle arrest in human T24 cells assessed as accumulation at G2/M phase at 8.26 uM measured after 24 hrs by propidium iodide staining based fluorescence analysis (reference value: 10.16%); assay type: functional
T-24 [3] = assay: Cell cycle arrest in human T24 cells assessed as accumulation at S phase at 2.06 uM measured after 24 hrs by propidium iodide staining based fluorescence analysis (reference value: 23.67%); assay type: functional
T-24 [4] = assay: Induction of cell cycle arrest in human T24 cells assessed as upregulation of cyclin-B1 expression at 2 to 8 uM by Western blot analysis; assay type: functional, cell-based
T-24 [5] = assay: Induction of apoptosis in human T24 cells assessed as upregulation of cytosolic cytochrome-C expression at 2 to 8 uM by Western blot analysis; assay type: functional, cell-based
T-24 [6] = assay: Induction of apoptosis in human T24 cells assessed as live cells at 2.06 uM by AnnexinV/propidium iodide staining based flow cytometry (reference value: 99.1%); assay type: functional
[7] = Toxicity in mouse xenografted with human T24 cells assessed as adverse effect at 5 to 15 mg/kg; assay type: organism-based, T-24; conditions: in vivo
[8] = Toxicity in mouse xenografted with human HepG2 cells assessed as effect on body weight at 5 to 15 mg/kg; assay type: organism-based; conditions: in vivo
T-24 [9] = assay: Cell cycle arrest in human T24 cells assessed as accumulation at G1 phase at 2.06 uM measured after 24 hrs by propidium iodide staining based fluorescence analysis (reference value: 66.18%); assay type: functional
SMMC-7721 = assay: Antiproliferative activity against human SMMC7721 cells assessed as cell growth inhibition measured after 48 hrs by MTT assay; assay type: functional, cell-based; conditions: SMMC-7721, 48 h
HepG2 [10] = assay: Anticancer activity against human HepG2 cells xenografted in mouse assessed as tumor inhibition rate at 5 mg/kg measured at day 14 relative to control; assay type: functional; conditions: HepG2, 336 h
T-24 [11] = assay: Anticancer activity against human T24 cells xenografted in mouse assessed as tumor growth inhibition by measuring T/C ratio at 15 mg/kg measured at day 14 relative to control; assay type: functional
T-24 [12] = assay: Induction of cell cycle arrest in human T24 cells assessed as upregulation of Wee1 expression at 2 to 8 uM by Western blot analysis; assay type: functional, cell-based
T-24 [13] = assay: Induction of apoptosis in human T24 cells by AnnexinV/propidium iodide staining based flow cytometry; assay type: functional, cell-based
T-24 [14] = assay: Induction of morphological changes in human T24 cells by AO/EB staining based assay; assay type: functional, cell-based
T-24 [15] = assay: Antiproliferative activity against human T24 cells assessed as cell growth inhibition measured after 48 hrs by MTT assay; assay type: functional, cell-based; conditions: T-24, 48 h
T-24 [16] = assay: Induction of apoptosis in human T24 cells assessed as late apoptotic cells at 2.06 uM by AnnexinV/propidium iodide staining based flow cytometry (reference value: 0%); assay type: functional
A549 = assay: Antiproliferative activity against human A549 cells assessed as cell growth inhibition measured after 48 hrs by MTT assay; assay type: functional, cell-based; conditions: A549, 48 h
HepG2 [17] = assay: Anticancer activity against human HepG2 cells xenografted in mouse assessed as tumor growth inhibition by measuring T/C ratio at 15 mg/kg measured at day 14 relative to control; assay type: functional
[18] = biological target: T1, DNA topoisomerase 1 (Homo sapiens) (UniProt P11387); assay: Inhibition of topoisomerase 1 (unknown origin) mediated DNA relaxation at 20 uM by gel electrophoresis assay
T1 sequence (whole entry): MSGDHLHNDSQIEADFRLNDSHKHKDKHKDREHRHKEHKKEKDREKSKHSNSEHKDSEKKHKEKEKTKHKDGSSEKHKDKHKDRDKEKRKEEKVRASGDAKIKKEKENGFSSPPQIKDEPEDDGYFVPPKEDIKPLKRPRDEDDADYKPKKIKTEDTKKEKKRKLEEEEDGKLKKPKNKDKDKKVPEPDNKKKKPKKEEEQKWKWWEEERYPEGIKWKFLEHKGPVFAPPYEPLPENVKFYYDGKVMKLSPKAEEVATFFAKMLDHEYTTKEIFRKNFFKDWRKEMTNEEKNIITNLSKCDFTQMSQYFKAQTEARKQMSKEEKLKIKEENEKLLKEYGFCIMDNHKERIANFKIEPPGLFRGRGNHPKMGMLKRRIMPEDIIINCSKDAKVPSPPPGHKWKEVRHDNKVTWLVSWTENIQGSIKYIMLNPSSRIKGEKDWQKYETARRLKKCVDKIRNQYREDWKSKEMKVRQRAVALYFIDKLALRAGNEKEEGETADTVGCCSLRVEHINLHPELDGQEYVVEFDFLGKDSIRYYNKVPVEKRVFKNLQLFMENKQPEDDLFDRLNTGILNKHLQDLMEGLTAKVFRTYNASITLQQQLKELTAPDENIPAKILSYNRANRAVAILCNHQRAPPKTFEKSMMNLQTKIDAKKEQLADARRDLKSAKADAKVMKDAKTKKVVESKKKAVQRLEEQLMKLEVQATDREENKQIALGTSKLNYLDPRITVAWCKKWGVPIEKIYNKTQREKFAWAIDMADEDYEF

T-24 [19] = assay: Induction of apoptosis in human T24 cells assessed as live cells at 8.26 uM by AnnexinV/propidium iodide staining based flow cytometry (reference value: 99.1%); assay type: functional
T-24 [20] = assay: Induction of apoptosis in human T24 cells assessed as necrotic cells at 4.13 uM by AnnexinV/propidium iodide staining based flow cytometry (reference value: 0.1%); assay type: functional
T-24 [21] = assay: Cell cycle arrest in human T24 cells assessed as accumulation at G1 phase at 4.13 uM measured after 24 hrs by propidium iodide staining based fluorescence analysis (reference value: 66.18%); assay type: functional
SK-OV-3 = assay: Antiproliferative activity against human SKOV3 cells assessed as cell growth inhibition measured after 48 hrs by MTT assay; assay type: functional, cell-based; conditions: SK-OV-3, 48 h
T-24 [22] = assay: Induction of apoptosis in human T24 cells assessed as […] of Bcl-2 expression at 2 to 8 uM by Western blot analysis; assay type: functional, cell-based
T-24 [23] = assay: Induction of cell cycle arrest in human T24 cells assessed as upregulation of p21 expression at 2 to 8 uM by Western blot analysis; assay type: functional, cell-based
T-24 [24] = assay: Anticancer activity against human T24 cells xenografted in mouse assessed as tumor inhibition rate at 5 mg/kg measured at day 14 relative to control; assay type: functional; conditions: T-24, 336 h
T-24 [25] = assay: Induction of apoptosis in human T24 cells assessed as cell budding by AO/EB staining based assay; assay type: functional

In the case of `CNCCN1C(=O)c2cccc3cc([N+](=O)[O-])cc(c23)C1=O`, the Activity (T-24 [1]) is reported as 0%, the Activity (T-24 [2]) is reported as 92.24% and the Activity (T-24 [3]) is reported as 19.81%. For the same compound, the Activity (T-24 [4]) was “Active”, the Activity (T-24 [5]) was “Active” and the Activity (T-24 [6]) was 98.8%. For the same compound, the Activity [7] was “Non-Toxic”, the Activity [8] was “Non-Toxic” and the Activity (T-24 [9]) was 50.17%. The IC50 (SMMC-7721) was 14 µM, the inhibition in vivo at 5 mg/kg (HepG2 [10]) was 26.8% and the T/C (T-24 [11]) was 38.4%. For the same compound, the Activity (T-24 [12]) was “Active”, the Activity (T-24 [13]) was “Dose-dependent effect” and the Activity (T-24 [14]) was “Active”. For the same compound, the IC50 (T-24 [15]) was 4.13 µM, the Activity (T-24 [16]) was 0% and the IC50 (A549) was 12.6 µM. The T/C (HepG2 [17]) was 38.6%, the inhibition [18] was “Active” and the Activity (T-24 [19]) was 76.6%. It also gave an Activity (T-24 [20]) of 0.1%, an Activity (T-24 [21]) of 9.9% and an IC50 (SK-OV-3) of 20.7 µM. The Activity (T-24 [22]) was “Active”, the Activity (T-24 [23]) was “Active” and the inhibition in vivo at 5 mg/kg (T-24 [24]) was 30.1%. The Activity (T-24 [25]) was “Active”.
